Test results reported in patent publication US20240317735A1, “HYDROISOQUINOLINE OR HYDRONAPHTHYRIDINE COMPOUNDS FOR THE TREATMENT OF AUTOIMMUNE DISEASE” (Hoffmann-La Roche Inc., priority 2020, published 2024).

Target: T1, human TLR7 (Homo sapiens, UniProt Q9NYK1)
T1 construct: host or cells: HEK293 (HEK-Blue hTLR7)
T1 sequence (Q9NYK1 27-1049): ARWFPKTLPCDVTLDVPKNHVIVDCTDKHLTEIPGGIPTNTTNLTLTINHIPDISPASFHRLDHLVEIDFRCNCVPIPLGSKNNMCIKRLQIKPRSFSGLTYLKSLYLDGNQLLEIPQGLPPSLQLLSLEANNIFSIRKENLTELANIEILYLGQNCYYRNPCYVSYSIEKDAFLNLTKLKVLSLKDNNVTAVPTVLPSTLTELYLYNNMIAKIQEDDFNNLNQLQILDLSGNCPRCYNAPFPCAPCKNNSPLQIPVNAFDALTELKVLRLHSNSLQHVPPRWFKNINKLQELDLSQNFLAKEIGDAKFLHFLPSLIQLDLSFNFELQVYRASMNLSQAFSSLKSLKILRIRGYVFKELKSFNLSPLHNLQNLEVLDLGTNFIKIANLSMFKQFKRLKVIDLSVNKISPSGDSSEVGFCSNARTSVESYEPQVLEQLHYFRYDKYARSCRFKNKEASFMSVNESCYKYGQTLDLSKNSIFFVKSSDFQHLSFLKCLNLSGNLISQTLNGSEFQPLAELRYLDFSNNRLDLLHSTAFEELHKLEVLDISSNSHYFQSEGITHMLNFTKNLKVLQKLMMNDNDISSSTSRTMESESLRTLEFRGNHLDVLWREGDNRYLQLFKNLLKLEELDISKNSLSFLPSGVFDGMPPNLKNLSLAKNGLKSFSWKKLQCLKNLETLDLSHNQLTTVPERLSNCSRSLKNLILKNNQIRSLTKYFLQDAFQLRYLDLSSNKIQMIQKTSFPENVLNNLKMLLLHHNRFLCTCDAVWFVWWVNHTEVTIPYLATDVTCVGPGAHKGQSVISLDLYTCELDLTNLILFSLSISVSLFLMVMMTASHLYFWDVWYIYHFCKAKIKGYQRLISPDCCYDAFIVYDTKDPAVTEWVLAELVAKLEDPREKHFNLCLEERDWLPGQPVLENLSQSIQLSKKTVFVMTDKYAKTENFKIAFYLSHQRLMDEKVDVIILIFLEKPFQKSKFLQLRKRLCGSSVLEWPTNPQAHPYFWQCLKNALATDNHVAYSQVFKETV
Test: HEK293-Blue-hTLR-7 cells assay (SEAP reporter, R848 stimulation)
Format: cell-based
Conditions: HEK293-Blue-hTLR7 cells, R848, 20 hrs; read-out: HEK/hTLR7 IC50
Procedure: The following tests were carried out in order to determine the activity of the compounds of formula (I) and (Ia) in HEK293-Blue-hTLR-7/8/9 cells assay.
A stable HEK293-Blue-hTLR-7 cell line was purchased from InvivoGen (Cat. #: hkb-htlr7, San Diego, California, USA). These cells were originally designed for studying the stimulation of human TLR7 by monitoring the activation of NF-κB. A SEAP (secreted embryonic alkaline phosphatase) reporter gene was placed under the control of the IFN-β minimal promoter fused to five NF-κB and AP-1-binding sites. The SEAP was induced by activating NF-κB and AP-1 via stimulating HEK-Blue hTLR7 cells with TLR7 ligands. Therefore the reporter expression w % as declined by TLR7 antagonist under the stimulation of a ligand, such as R848 (Resiquimod), for incubation of 20 hrs. The cell culture supernatant SEAP reporter activity was determined using QUANTI-Blue™ kit (Cat. #: rep-qb1, Invivogen, San Diego, Ca, USA) at a wavelength of 640 nm, a detection medium that turns purple or blue in the presence of alkaline phosphatase.
HEK293-Blue-hTLR7 cells were incubated at a density of 250,000˜450,000 cells/mL in a volume of 170 μL in a 96-well plate in Dulbecco's Modified Eagle's medium (DMEM) containing 4.5 g/L glucose, 50 U/mL penicillin, […], […] Normocin, 2 mM L-glutamine, 10% (v/v) heat-inactivated fetal bovine serum with addition of 20 μL test compound in a serial dilution in the presence of final DMSO at 1% and 10 μL of 20 uM R848 in above DMEM, perform incubation under 37° C. in a C02 incubator for 20 hrs. Then 20 μL of the supernatant from each well was incubated with 180 μL Quanti-blue substrate solution at 37° C. for 2 hrs and the absorbance was read at 620˜655 nm using a spectrophotometer. The signaling pathway that TLR7 activation leads to downstream NF-κB activation has been widely accepted, and therefore similar reporter assay was modified for evaluating TLR7 antagonist.

SMILES	IC50 [nM]
Cc1cc(N2Cc3ccc(N4CCC5(CCNCC5)CC4)cc3C(C)C2)c2cnn(C)c2n1 (stereo not drawn) [Example 5, 3-[2-(1,6-dimethylpyrazolo[3,4-b]pyridin-4-yl)-4-methyl-3,4-dihydro-1H-isoquinolin-6-yl]-3,9-diazaspiro[5.5]undecane]	3
Cc1cc(N2Cc3ccc(OC[C@@H]4CNCCN4)cc3[C@@H](C)C2)c2cnn(C)c2n1 [Example 31, (4R)-2-(1,6-dimethylpyrazolo[3,4-b]pyridin-4-yl)-4-methyl-6-[[(2S)-piperazin-2-yl]methoxy]-3,4-dihydro-1H-isoquinoline]	24
CO[C@H]1CN(c2cc3c(cn2)CN(c2cc(C)nc4c2cnn4C)C[C@@H]3C)CC[C@@H]1N [Example 73, (3S,4S)-3-methoxy-1-[(5R)-7-(1,6-dimethylpyrazolo[3,4-b]pyridin-4-yl)-5-methyl-6,8-dihydro-5H-2,7-naphthyridin-3-yl]piperidin-4-amine]	4
Cc1cc(N2Cc3cnc(N4CC5(CNCCO5)C4)cc3[C@@H](C)C2)c2cnn(C)c2n1 [Example 79, 2-[(5R)-7-(1,6-dimethylpyrazolo[3,4-b]pyridin-4-yl)-5-methyl-6,8-dihydro-5H-2,7-naphthyridin-3-yl]-5-oxa-2,8-diazaspiro[3.5]nonane]	19
C[C@H]1CN(c2ccnc3c2cnn3C)Cc2ccc(OC3CN(C4CCNCC4)C3)cc21 [Example 41, (4R)-4-methyl-2-(1-methylpyrazolo[3,4-b]pyridin-4-yl)-6-[1-(4-piperidyl)azetidin-3-yl]oxy-3,4-dihydro-1H-isoquinoline]	7
Cc1cc(N2Cc3ccc(N4CCNCC4)nc3[C@@H](C)C2)c2cnn(C)c2n1 [Example 66, (8S)-6-(1,6-dimethylpyrazolo[3,4-b]pyridin-4-yl)-8-methyl-2-piperazin-1-yl-7,8-dihydro-5H-1,6-naphthyridine]	8
Cc1cc(N2Cc3ccc(OC4CCNCC4)nc3[C@@H](C)C2)c2cnn(C)c2n1 [Example 64, (8S)-6-(1,6-dimethylpyrazolo[3,4-b]pyridin-4-yl)-8-methyl-2-(4-piperidyloxy)-7,8-dihydro-5H-1,6-naphthyridine]	5
C[C@H]1CN(c2ccnc3c2cnn3C)Cc2ccc(N3CCN(c4cc5c(cn4)CCNC5)CC3)cc21 [Example 9, 7-[4-[(4R)-4-methyl-2-(1-methylpyrazolo[3,4-b]pyridin-4-yl)-3,4-dihydro-1H-isoquinolin-6-yl]piperazin-1-yl]-1,2,3,4-tetrahydro-2,6-naphthyridine]	7
Cc1cc(N2Cc3ccc(N4CCOC5(CNC5)C4)nc3[C@@H](C)C2)c2cnn(C)c2n1 [Example 70, 8-[(8S)-6-(1,6-dimethylpyrazolo[3,4-b]pyridin-4-yl)-8-methyl-7,8-dihydro-5H-1,6-naphthyridin-2-yl]-5-oxa-2,8-diazaspiro[3.5]nonane]	36
Cc1cc(N2Cc3cnc(N4CC[C@@H](N)[C@H](F)C4)cc3[C@@H](C)C2)c2cnn(C)c2n1 [Example 80, (3R,4R)-3-fluoro-1-[(5R)-7-(1,6-dimethylpyrazolo[3,4-b]pyridin-4-yl)-5-methyl-6,8-dihydro-5H-2,7-naphthyridin-3-yl]piperidin-4-amine]	12
Cc1cc(N2Cc3ccc(N4CCC(C)(N)CC4)nc3[C@@H](C)C2)c2cnn(C)c2n1 [Example 59, 4-methyl-1-[(8S)-6-(1,6-dimethylpyrazolo[3,4-b]pyridin-4-yl)-8-methyl-7,8-dihydro-5H-1,6-naphthyridin-2-yl]piperidin-4-amine]	2
Cc1cc(N2Cc3ccc(N4CCNCC4)nc3[C@H](C)C2)c2cnn(C)c2n1 [Example 72, (8R)-6-(1,6-dimethylpyrazolo[3,4-b]pyridin-4-yl)-8-methyl-2-piperazin-1-yl-7,8-dihydro-5H-1,6-naphthyridine]	21
Cc1cc(N2Cc3cnc(N4CCNCC4)cc3[C@@H](C)C2)c2cnn(C)c2n1 [Example 74, (4R)-2-(1,6-dimethylpyrazolo[3,4-b]pyridin-4-yl)-4-methyl-6-piperazin-1-yl-3,4-dihydro-1H-2,7-naphthyridine]	6

More lines, now with the values ahead:

IC50 [nM]	SMILES
8	C[C@H]1CN(c2ccnc3c2cnn3C)Cc2ccc(OCCN3CCNCC3)cc21 [Example 40, (4R)-4-methyl-2-(1-methylpyrazolo[3,4-b]pyridin-4-yl)-6-(2-piperazin-1-ylethoxy)-3,4-dihydro-1H-isoquinoline]
10	CCn1ncc2c(N3Cc4ccc(N5CCNCC5)cc4[C@@H](C)C3)ccnc21 [Example 22, (4R)-2-(1-ethylpyrazolo[3,4-b]pyridin-4-yl)-4-methyl-6-piperazin-1-yl-3,4-dihydro-1H-isoquinoline]
14	C[C@H]1CN(c2ccnc3c2cnn3C)Cc2ccc(N3CCN(Cc4cn(C)cn4)CC3)cc21 [Example 37, (4R)-4-methyl-6-[4-[(1-methylimidazol-4-yl)methyl]piperazin-1-yl]-2-(1-methylpyrazolo[3,4-b]pyridin-4-yl)-3,4-dihydro-1H-isoquinoline]
15	C[C@H]1CN(c2ccnc3c2cnn3C)Cc2ccc(OC[C@@H]3CNCCN3C)cc21 [Example 44, (4R)-4-methyl-2-(1-methylpyrazolo[3,4-b]pyridin-4-yl)-6-[[(2S)-1-methylpiperazin-2-yl]methoxy]-3,4-dihydro-1H-isoquinoline]
10	C[C@H]1CN(c2ccnc3c2cnn3C)Cc2ccc(N3C[C@H]4CNCCN4C3=O)cc21 [Example 24, (8aR)-2-[(4R)-4-methyl-2-(1-methylpyrazolo[3,4-b]pyridin-4-yl)-3,4-dihydro-1H-isoquinolin-6-yl]-1,5,6,7,8,8a-hexahydroimidazo[1,5-a]pyrazin-3-one]
1	C[C@H]1CN(c2ccnc3c2cnn3C)Cc2ccc(N3CCC(N4CCNCC4)CC3)cc21 [Example 10, (4R)-4-methyl-2-(1-methylpyrazolo[3,4-b]pyridin-4-yl)-6-(4-piperazin-1-yl-1-piperidyl)-3,4-dihydro-1H-isoquinoline]
9	C[C@H]1CN(c2ccnc3c2cnn3C)Cc2ccc(N3CC4(CCNC4)CC3=O)cc21 (stereo partly drawn) [Example 52, 2-[(4R)-4-methyl-2-(1-methylpyrazolo[3,4-b]pyridin-4-yl)-3,4-dihydro-1H-isoquinolin-6-yl]-2,7-diazaspiro[4.4]nonan-3-one]
5	C[C@H]1CN(c2ccnc3c2cnn3C)Cc2ccc(N3CC4(CCNCC4)CC3=O)cc21 [Example 16, 2-[(4R)-4-methyl-2-(1-methylpyrazolo[3,4-b]pyridin-4-yl)-3,4-dihydro-1H-isoquinolin-6-yl]-2,8-diazaspiro[4.5]decan-3-one]
18	C[C@H]1CN(c2ccnc3c2cnn3C)Cc2ccc(N3C[C@@]4(CCNC4)CC3=O)cc21 (single isomer, unassigned) [Example 53]
4	CC1CN(c2ccc3c(c2)[C@@H](C)CN(c2ccnc4c2cnn4C)C3)CCN1 (stereo partly drawn) [Example 15, (4R)-4-methyl-6-(3-methylpiperazin-1-yl)-2-(1-methylpyrazolo[3,4-b]pyridin-4-yl)-3,4-dihydro-1H-isoquinoline]
9	C[C@H]1CN(c2ccnc3c2cnn3C)Cc2ccc(N3C[C@H]4CCNC[C@H]4C3=O)cc21 (single isomer, unassigned) [Example 56]
